The test system of the assay is caspase-3. The assay can be described thus: Caspase-3 activity in HUVECs (Example 7-2). Format: cell-based, human. The settings on record: caspase-3-specific inhibitor added to samples. How it is done:
With respect to the induction of endothelial cell apoptosis (active cell death) by the fas-1 domain, which had been confirmed in Example 7-1 above, the present inventors measured the activity of caspase-3, which is activated when apoptosis occurs, in the cells treated with the fas-1 domain.
HUVECs were spread onto a 100-mm plate (10 ml culture solution) with M199 medium containing 10% FBS, followed by incubation in a 37° C. incubator for 12 hours. After the incubation, the medium was removed from the plate, the cells were added with fresh medium containing 0.1% FBS and further incubated for 24 hours. The cell-containing medium was treated with 5 μM or 20 μM of the fas-1 domain (βig-h3 D-IV) prepared in Example 1. A control was treated with PBS buffer. At 12 hours and 24 hours after the treatment, the cells were harvested. The caspase-3 activity of the cells was measured with an EnzCheck Caspase-3 Assay Kit(#2) (Molecular Probe Co., Eugene, Oreg., USA). Moreover, to verify that measured values are attributed to caspase-3 activity, each of the samples was treated with DEVD-CHO (Molecular Probe Co., Eugene, Oreg., USA) as a caspase-3-specific inhibitor. The control was treated with DMSO.

For DEVD-CHO [reference compound], the “inhibition of caspase-3 activities of test groups and control group” value was “inhibited”.

The values are drawn from patent publication US20070167369A1, “Novel use of isolated polypeptide comprising four FAS-1 domains, EM1 domain and RGD motif” (KYUNGPOOK NATIONAL UNIVERSITY INDUSTRY-ACADEMIC COOPERATION …, priority 2004, published 2007).
